Source: patent publication US7652061B2, “N-acyl nitrogen heterocycles as ligands of peroxisome proliferator-activated receptors” (Novartis A.G., priority 2003, dated 2010)

How the values were obtained:
[1] = biological target: T1, hPPARα ligand binding domain (GST-hPPARα LBD) (Homo sapiens, UniProt Q07869); assay: PPARα functional binding assay (CARLA, TR-FRET); type: biochemical; conditions: SRC-1 peptide recruitment, 3 hours at RT, read-out: EC50 in the PPARα receptor binding assay
T1 construct: made in house; host or cells: E. coli BL21(DE3), pGEX vector
T1 sequence (Q07869 167-468): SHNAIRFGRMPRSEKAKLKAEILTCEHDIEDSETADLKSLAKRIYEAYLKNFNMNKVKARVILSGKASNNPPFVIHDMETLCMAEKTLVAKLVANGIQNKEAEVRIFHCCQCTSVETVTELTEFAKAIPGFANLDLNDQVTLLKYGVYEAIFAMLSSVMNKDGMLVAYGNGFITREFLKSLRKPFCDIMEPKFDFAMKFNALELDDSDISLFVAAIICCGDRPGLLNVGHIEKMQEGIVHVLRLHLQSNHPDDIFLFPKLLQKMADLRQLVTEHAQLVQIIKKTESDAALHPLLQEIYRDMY
Description: (§1) The in vitro functional binding to the PPARα, PPARδ and PPARγ receptors is determined as follows:
(§2) The functional binding assays for the PPARα, PPARδ and PPARγ receptors are a variation of the coactivator-dependent receptor ligand assay (CARLA) (see Krey et al., “Fatty Acids, Eicosanoids, and Hypolipidemic Agents Identified as Ligands of Peroxisome Proliferator-Activated Receptors by Coactivator-Dependent Receptor Ligand Assay”, Molecular Endocrinology, Vol. 11, pp. 779-791 (1997)). The present CARLA assays use a TR-FRET detection method previously reviewed (see Hemmila, “LANCE: Homogeneous Assay Plafform for HTS”, J. Biomol. Screening, Vol. 4, pp. 303-307 (1999); Mathis, “HTRF Technology”, J. Biomol. Screening, Vol. 4, pp. 309-313 (1999)). […] This brings the Eu-labeled anti-GST antibody and the strepavidin-labeled APC in close proximity, thereby facilitating fluorescence energy transfer. […] After mixing all components, the reaction mixture stands for 3 hours at RT before reading the TR-FRET (Time-Resolved Fluorescence Resonance Energy Transfer) signal on a Wallac Victor 2 plate reader (measuring the ratio of signals at […]). […]

[2] = biological target: T2, hPPARγ ligand binding domain (GST-hPPARγ LBD) (Homo sapiens, UniProt P37231); assay: PPARγ functional binding assay (CARLA, TR-FRET); type: biochemical; conditions: SRC-1 peptide recruitment, 3 hours at RT, read-out: EC50 in the PPARγ receptor binding assay
T2 construct: GST-hPPARγ LBD (amino acids 175-476); made in house; host or cells: E. coli BL21(DE3), pGEX vector
T2 sequence (P37231 175-476 isoform P37231-2): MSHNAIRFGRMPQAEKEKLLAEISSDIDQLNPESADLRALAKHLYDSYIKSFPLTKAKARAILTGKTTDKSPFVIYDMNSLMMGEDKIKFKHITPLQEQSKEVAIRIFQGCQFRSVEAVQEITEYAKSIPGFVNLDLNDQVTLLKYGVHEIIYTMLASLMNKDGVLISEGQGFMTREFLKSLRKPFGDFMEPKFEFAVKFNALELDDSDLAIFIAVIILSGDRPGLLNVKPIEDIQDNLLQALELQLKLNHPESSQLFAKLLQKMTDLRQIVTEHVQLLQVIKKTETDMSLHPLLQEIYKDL
Description: as §1, §2

- EC50 [1]: ~3 nM
- EC50 [2]: ~1800 nM
Structure (SMILES): Cc1oc(-c2ccc(Cl)c(F)c2)nc1COc1cccc(C(C)(C)C(=O)N2CCC[C@@H]2C(=O)O)c1 [Example 9, (R)-1-(2-{3-[2-(4-Chloro-3-fluoro-phenyl)-5-methyl-oxazol-4-yl-methoxy]-phenyl}-2-methyl-propionyl)-pyrrolidine-2-carboxylic acid]
